Test results taken from patent US20090098130A1, “GLUCAGON-LIKE PROTEIN-1 RECEPTOR (GLP-1R) AGONIST COMPOUNDS” (priority 2007, published 2009).
Non-standard residues stand in square brackets, D forms with d. Residues, ends and D or L forms follow the SMILES beside them. Aib = CC(C)(N)C(=O)O

Experiments:
h38C2 = settings: competition ELISA against immobilized BSA-conjugated β-diketone 1, read-out: apparent equilibrium dissociation constant; cited from earlier work
m38C2 = settings: competition ELISA against immobilized BSA-conjugated β-diketone 1, read-out: apparent equilibrium dissociation constant; cited from earlier work
pancreatic β cells = assay: glucose-stimulated insulin secretion (GSIS) assay; format: cell-based; settings: GA targeting peptide; insulin secretion from pancreatic β cell cultures in vitro with glucose
In short: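 Pancreatic β cell cultures were given glucose plus GA targeting peptide at various concentrations, and insulin levels were measured over time. EC50 was calculated per peptide; each peptide carried a side-chain modified Lys at a different position.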

Row | EC50 (pancreatic β cells) | SMILES | Kd (h38C2) | Kd (m38C2)
1 | < 10 µM | CC[C@H](C)[C@H](NC(=O)[C@H](C)NC(=O)[C@H](CCC(N)=O)NC(=O)CNC(=O)[C@H](CCC(=O)O)NC(=O)[C@H](CC(C)C)NC(=O)[C@H](Cc1ccc(O)cc1)NC(=O)[C@H](CO)NC(=O)[C@H](CO)NC(=O)[C@@H](NC(=O)[C@H](CC(=O)O)NC(=O)[C@H](CO)NC(=O)[C@@H](NC(=O)[C@H](Cc1ccccc1)NC(=O)[C@@H](NC(=O)CNC(=O)[C@H](CCC(=O)O)NC(=O)C(C)(C)NC(=O)[C@@H](N)Cc1c[nH]cn1)[C@@H](C)O)[C@@H](C)O)C(C)C)C(=O)N[C@@H](CCCCN)C(=O)N[C@@H](CCC(=O)O)C(=O)N[C@@H](Cc1ccccc1)C(=O)N[C@H](C(=O)N[C@@H](C)C(=O)N[C@@H](Cc1c[nH]c2ccccc12)C(=O)N[C@@H](CC(C)C)C(=O)N[C@H](C(=O)N[C@@H](CCCCN)C(=O)NC(C)(C)C(=O)N[C@@H](CCCNC(=N)N)C(N)=O)C(C)C)[C@@H](C)CC [SEQ ID NO: 49] (H-H[Aib]EGTFTSDVSSYLEGQAIKEFIAWLVK[Aib]R-NH2) | – | –
2 | < 10 µM | CC[C@H](C)[C@H](NC(=O)[C@H](Cc1ccccc1)NC(=O)[C@H](CCC(=O)O)NC(=O)[C@H](CCCCN)NC(=O)[C@H](C)NC(=O)[C@H](C)NC(=O)[C@H](CCC(N)=O)NC(=O)CNC(=O)[C@H](CCC(=O)O)NC(=O)[C@H](CC(C)C)NC(=O)[C@H](Cc1ccc(O)cc1)NC(=O)[C@H](CO)NC(=O)[C@H](CO)NC(=O)[C@@H](NC(=O)[C@H](CC(=O)O)NC(=O)[C@H](CO)NC(=O)[C@@H](NC(=O)[C@H](Cc1ccccc1)NC(=O)[C@@H](NC(=O)CNC(=O)[C@H](CCC(=O)O)NC(=O)C(C)(C)NC(=O)[C@@H](N)Cc1c[nH]cn1)[C@@H](C)O)[C@@H](C)O)C(C)C)C(=O)N[C@@H](C)C(=O)N[C@@H](Cc1c[nH]c2ccccc12)C(=O)N[C@@H](CC(C)C)C(=O)N[C@H](C(=O)N[C@@H](CCCCN)C(=O)NC(C)(C)C(=O)N[C@@H](CCCNC(=N)N)C(N)=O)[C@@H](C)CC [SEQ ID NO: 54] | – | –

The remaining lines, values behind:

Row | SMILES | EC50 (pancreatic β cells) | Kd (h38C2) | Kd (m38C2)
3 | CC(=O)CC(=O)CCc1ccccc1 [β-diketone 3] | – | 1 µM | 0.43 µM
4 | CC(=O)CC(C)=O [β-diketone 2] | – | 7.6 µM | 38 µM
5 | CC[C@H](C)[C@H](NC(=O)[C@H](Cc1ccccc1)NC(=O)[C@H](CCC(=O)O)NC(=O)[C@H](CCCCN)NC(=O)[C@H](C)NC(=O)[C@H](C)NC(=O)[C@H](CCC(N)=O)NC(=O)[C@H](CCC(=O)O)NC(=O)[C@H](CCC(=O)O)NC(=O)[C@H](CC(C)C)NC(=O)[C@H](Cc1ccc(O)cc1)NC(=O)[C@H](CO)NC(=O)[C@H](CO)NC(=O)[C@@H](NC(=O)[C@H](CC(=O)O)NC(=O)[C@H](CO)NC(=O)[C@@H](NC(=O)[C@H](Cc1ccccc1)NC(=O)[C@@H](NC(=O)CNC(=O)[C@H](CCC(=O)O)NC(=O)C(C)(C)NC(=O)[C@@H](N)Cc1c[nH]cn1)[C@@H](C)O)[C@@H](C)O)C(C)C)C(=O)N[C@@H](C)C(=O)N[C@@H](Cc1c[nH]c2ccccc12)C(=O)N[C@@H](CC(C)C)C(=O)N[C@H](C(=O)N[C@@H](CCCCN)C(=O)NC(C)(C)C(=O)N[C@@H](CCCNC(=N)N)C(N)=O)C(C)C [SEQ ID NO: 45] (H-H[Aib]EGTFTSDVSSYLEEQAAKEFIAWLVK[Aib]R-NH2) | < 10 µM | – | –
